Test results from the OligoGym collection.
Several values for one entry are separate records, joined by “and”; a condition that tells them apart may be missing. Identical values can stand only once. After the bases stand the sugars from the 5' end (letter, count) and the backbone: PS all phosphorothioate, else s phosphorothioate and o phosphodiester by linkage. Methylation of C is not given here. e = 2'-O-(2-methoxyethyl) (MOE); k = constrained ethyl (cEt); d = 2'-deoxy (DNA)

Target: IRF4
Settings: ASO

Sequence	target mRNA inhibition (MM.1R, 1 µM)	target mRNA inhibition (SK-MEL-28, 4 µM) [%]	also measured
CAGTGACTTGCATCCA (sugars kdddddddddkekeke, PS)	19%	–	–
CAGTGACTTGCATCCA (sugars kkddddddddddkeke, PS)	33%	–	–
CAGTGATGTCAGGTTT (sugars k3 d10 k3, PS)	62%	–	target mRNA inhibition (MM.1R, 0.074 µM): 22%; target mRNA inhibition (MM.1R, 0.222 µM): 39%; target mRNA inhibition (MM.1R, 0.666 µM): 62%; target mRNA inhibition (MM.1R, 2 µM): 85%
CAGTGATGTCAGGTTT (sugars kdddddddddkekeke, PS)	48%	–	–
CAGTGATGTCAGGTTT (sugars kkdddddddddkdkdk, PS)	47%	–	target mRNA inhibition (MM.1R, 0.074 µM): 5%; target mRNA inhibition (MM.1R, 0.222 µM): 23%; target mRNA inhibition (MM.1R, 0.666 µM): 40%; target mRNA inhibition (MM.1R, 2 µM): 67%
CAGTGATGTCAGGTTT (sugars kkdddddddddkekek, PS)	64%	–	target mRNA inhibition (MM.1R, 0.074 µM): 8%; target mRNA inhibition (MM.1R, 0.222 µM): 28%; target mRNA inhibition (MM.1R, 0.666 µM): 53%; target mRNA inhibition (MM.1R, 2 µM): 77%
CAGTGATGTCAGGTTT (sugars kkkddddddddkekek, PS)	56%	–	target mRNA inhibition (MM.1R, 0.074 µM): 19%; target mRNA inhibition (MM.1R, 0.222 µM): 40%; target mRNA inhibition (MM.1R, 0.666 µM): 56%; target mRNA inhibition (MM.1R, 2 µM): 74%
CAGTGGAGCTCCACAG (sugars k3 d10 k3, PS)	–	41	–
CAGTTGTAAATGAGTC (sugars k2 d9 e3 k2, PS)	62%	–	target mRNA inhibition (H929, 0.00067 µM): 26%; target mRNA inhibition (H929, 0.002 µM): 46%; target mRNA inhibition (H929, 0.00667 µM): 64%; target mRNA inhibition (H929, 0.02 µM): 72%; target mRNA inhibition (H929, 0.04 µM): 50%; target mRNA inhibition (KMS11, 0.2 µM): 83% and 91%; target mRNA inhibition (MM.1R, 0.074 µM): 10%; target mRNA inhibition (MM.1R, 0.222 µM): 28%; target mRNA inhibition (MM.1R, 0.666 µM): 52%; target mRNA inhibition (MM.1R, 2 µM): 77%
CAGTTGTAAATGAGTC (sugars kdddddddddkekeke, PS)	62%	–	target mRNA inhibition (H929, 0.00067 µM): 9%; target mRNA inhibition (H929, 0.002 µM): 26%; target mRNA inhibition (H929, 0.00667 µM): 39%; target mRNA inhibition (H929, 0.02 µM): 48%; target mRNA inhibition (H929, 0.04 µM): 27%; target mRNA inhibition (KMS11, 0.2 µM): 62% and 74%; target mRNA inhibition (MM.1R, 0.074 µM): 20%; target mRNA inhibition (MM.1R, 0.222 µM): 36%; target mRNA inhibition (MM.1R, 0.666 µM): 59%; target mRNA inhibition (MM.1R, 2 µM): 79%
CAGTTGTAAATGAGTC (sugars kkddddddddddkeke, PS)	59%	–	target mRNA inhibition (MM.1R, 0.074 µM): 19%; target mRNA inhibition (MM.1R, 0.222 µM): 35%; target mRNA inhibition (MM.1R, 0.666 µM): 49%; target mRNA inhibition (MM.1R, 2 µM): 73%
CAGTTGTAAATGAGTC (sugars kkkdddddddddkeke, PS)	58%	–	target mRNA inhibition (MM.1R, 0.074 µM): 21%; target mRNA inhibition (MM.1R, 0.222 µM): 28%; target mRNA inhibition (MM.1R, 0.666 µM): 57%; target mRNA inhibition (MM.1R, 2 µM): 80%
CAGTTGTAAATGAGTC (sugars kkkddddddddkekek, PS)	76%	–	target mRNA inhibition (MM.1R, 0.074 µM): 26%; target mRNA inhibition (MM.1R, 0.222 µM): 52%; target mRNA inhibition (MM.1R, 0.666 µM): 75%; target mRNA inhibition (MM.1R, 2 µM): 88%
CATAACACGGTGTTGA (sugars k3 d10 k3, PS)	–	36	–
CATACAGTGTGATTAA (sugars k3 d10 k3, PS)	–	53	–
CATACCTACAAGCAGT (sugars k3 d10 k3, PS)	–	43	–
CATAGGTCCTTCAGAT (sugars k3 d10 k3, PS)	-5%	–	–
CATCCGAAAAGACTGG (sugars k3 d10 k3, PS)	14%	–	–
CATCGAGATCAGTCTC (sugars k3 d10 k3, PS)	–	65	–
CATGAGCTCGGTCAAC (sugars k3 d10 k3, PS)	-1%	–	–
CATGGAGGATCATAAA (sugars k3 d10 k3, PS)	–	22	–
CATGGGACATTGGTAC (sugars k3 d10 k3, PS)	18%	–	–
CATGGGAGATCCGGCA (sugars k3 d10 k3, PS)	–	41	–

Sequence	target mRNA inhibition (MM.1R, 1 µM)	target mRNA inhibition (SK-MEL-28, 4 µM) [%]	also measured
CATGTAGTTGTGAACC (sugars k3 d10 k3, PS)	–	27	–
CATTAAAGAGTGGTAC (sugars k3 d10 k3, PS)	–	-3	–
CATTAGCAATTAGCTC (sugars k3 d10 k3, PS)	-37%	–	–
CATTCCCTAGGTCATA (sugars k3 d10 k3, PS)	–	54	–
CATTTCATTTAATGTC (sugars k4 d8 k4, PS)	–	44	–
CATTTTATGGACCACG (sugars k3 d10 k3, PS)	–	62	–
CCAAAGCATAGAGTCA (sugars k3 d10 k3, PS)	–	58	–
CCAAAGGCTCCCGACA (sugars k3 d10 k3, PS)	–	29	–
CCAAATGACTTAGTCA (sugars k3 d10 k3, PS)	–	51	–
CCAAGATCGAGCGGTG (sugars k3 d10 k3, PS)	–	37	–
CCAAGGCTACAGGCAC (sugars k3 d10 k3, PS)	–	63	–
CCAAGTAATTTTAAGG (sugars k3 d10 k3, PS)	–	34	–
CCAATAGTCTAGCTGG (sugars k3 d10 k3, PS)	–	19	–
CCACAACTCTCGCCTC (sugars k3 d10 k3, PS)	-9%	–	–
CCACAACTGCAGTTTG (sugars k3 d10 k3, PS)	–	23	–
CCACAAGAAAGAGACC (sugars k3 d10 k3, PS)	–	-9	–
CCACAAGCAGTGATGT (sugars k3 d10 k3, PS)	16%	–	–
CCAGGGTGAGCTGCTT (sugars k3 d10 k3, PS)	–	31	–
CCAGGTTCATGCCCCG (sugars k3 d10 k3, PS)	–	54	–
CCATATACATTGAGGC (sugars k3 d10 k3, PS)	–	44	–
CCCAAAGAGAGTGGGT (sugars k3 d10 k3, PS)	–	0	–
CCCAAGCCTTGAAGAG (sugars k3 d10 k3, PS)	–	6	–
CCCACACCAGCCCGGG (sugars k4 d8 k4, PS)	–	-6	–

Sequence	target mRNA inhibition (MM.1R, 1 µM)	target mRNA inhibition (SK-MEL-28, 4 µM) [%]	also measured
CCCACATGTCCCGTGG (sugars k3 d10 k3, PS)	–	5	–
CCCACGAAGGGCAGTG (sugars k3 d10 k3, PS)	–	35	–
CCCACGGACGGAGGCG (sugars k3 d10 k3, PS)	–	-9	–
CCCATATACATTGAGG (sugars k3 d10 k3, PS)	16%	–	–
CCCCAAAATACTTTGC (sugars k3 d10 k3, PS)	–	100	–
CCCCAGTCTACTGCTG (sugars k3 d10 k3, PS)	–	47	–
CCCCGAATAGGACCCC (sugars k3 d10 k3, PS)	–	56	–
CCCCGAGCTGCACACG (sugars k3 d10 k3, PS)	-5%	–	–
CCCCGCGGTCCCGCTG (sugars k3 d10 k3, PS)	–	41	–
CCCCGGAAGAAGGCAC (sugars k3 d10 k3, PS)	–	36	–
CCCCTTAGGAACGAAG (sugars k3 d10 k3, PS)	-6%	–	–
CCCGACCCTCCCCAAC (sugars k3 d10 k3, PS)	-35%	–	–
CCCGGCCGATCATCAA (sugars k3 d10 k3, PS)	23%	–	–
CCCTACCTTTTTTGGC (sugars k3 d10 k3, PS)	-7%	–	–
CCCTAGATAACATGAG (sugars k3 d10 k3, PS)	–	17	–
CCCTATCACTGCCAAG (sugars k3 d10 k3, PS)	–	38	–
CCCTTAGGAACGAAGA (sugars k3 d10 k3, PS)	–	-6	–
CCGAATAGGACCCCTA (sugars k3 d10 k3, PS)	–	32	–
CCGACACGCGCCGCTC (sugars k3 d10 k3, PS)	–	30	–
CCGATGCTTCAAGACA (sugars k3 d10 k3, PS)	13%	–	–
CCGCACGCAAGGCTCG (sugars k3 d10 k3, PS)	–	16	–
CCGCGAAGGCTCCTAC (sugars k3 d10 k3, PS)	–	14	–
CCGGAGCAGGCCCGGG (sugars k3 d10 k3, PS)	–	-13	–

Sequence	target mRNA inhibition (MM.1R, 1 µM)	target mRNA inhibition (SK-MEL-28, 4 µM) [%]	also measured
CCGGAGGCCGCCGTGA (sugars k3 d10 k3, PS)	–	13	–
CCGGTAGAGTGAGATG (sugars k3 d10 k3, PS)	-3%	–	–
CCGTATCCCCGTATCA (sugars k3 d10 k3, PS)	–	35	–
CCGTGATCTGAGACTA (sugars k3 d10 k3, PS)	45% and 30%	–	target mRNA inhibition (MM.1R, 0.0625 µM): 0%; target mRNA inhibition (MM.1R, 0.25 µM): 13%; target mRNA inhibition (MM.1R, 4 µM): 71%
CCTACACAGGCTAATC (sugars k3 d10 k3, PS)	–	13	–
CCTACTGGGTACATGG (sugars k3 d10 k3, PS)	–	63	–
CCTATAACTTCTCCTG (sugars k3 d10 k3, PS)	-7%	–	–
CCTCAGGAAATGTCCA (sugars k3 d10 k3, PS)	–	37	–
CCTCAGGAAATGTCCA (sugars k4 d8 k4, PS)	–	10	–
CCTCAGTTTGTGAAGC (sugars kddddddddddkekek, PS)	26%	–	–
CCTCAGTTTGTGAAGC (sugars kkdddddddddkdkdk, PS)	8%	–	–
CCTGAAAAGAGCCGCC (sugars k3 d10 k3, PS)	-3%	–	–
CCTGAATTTACAGCAT (sugars k3 d10 k3, PS)	–	40	–
CCTGAGTTACCGCATT (sugars k3 d10 k3, PS)	24%	–	–
CCTGGCGGCCTCCACG (sugars k3 d10 k3, PS)	–	-31	–
CCTGGGACTCAGGTGG (sugars k4 d8 k4, PS)	–	7	–
CCTGGGAGTAATAGTA (sugars k3 d10 k3, PS)	–	53	–
CCTGGTCCAGGTTGCT (sugars k4 d8 k4, PS)	–	34	–
CCTGTCACCTGGCAAC (sugars k3 d10 k3, PS)	–	41	–
CCTTGAAGAGCGCGGC (sugars k3 d10 k3, PS)	–	24	–
CCTTTTCAGAGTCCTG (sugars k3 d10 k3, PS)	–	58	–
